Laboratory results from patent US20150023883A1, “Antiperspirant Spray Devices and Compositions” (The Procter & Gamble Company, priority 2013, published 2015).

Text: (§1) Solubility may be determined by measuring the amount of light transmittance (a light transmittance value) through a simple mixture of the non-volatile silicone fluid and liquid activation enhancer at the same weight/weight concentrations as in a final antiperspirant composition.
as §1, with “Solubility of a liquid activation enhancer in a non-volatile silicone” for “Solubility”, “(light” for “(a light”
The Spectronic Genesys 10 Vis utilizes a tungsten-halogen light source and has a spectral bandwidth of 5 nm, a wavelength range of 325 to 1100 nm, accuracy of ±1 nm and a repeatability of ±0.5 nm. Readouts include absorbance, transmittance and concentration. The spectrophotometer is set to 640 nm wavelength and the percent transmittance mode/readout. Polystyrene spectrometer cuvettes having a 1 cm optical light path and transmittance between ˜340 nm and ˜900 nm are used. One suitable example of a spectrometer cuvette is available from VWR International LLC under Catalog #97000-584 having a 2.5 to 4.5 ml capacity. The spectrophotometer is calibrated according to the manufacturer's instructions using a reference cuvette and composition comprised of just the non-volatile silicone fluid of interest. For example, if the test composition comprises 50 centistoke dimethicone and 15% w/w of isopropyl myristate, then the spectrometer is calibrated using a cuvette containing just 50 centistoke dimethicone. Sample cuvettes are filled sufficiently with a test composition of a non-volatile silicone fluid and liquid activation enhancer so that the light path of the spectrophotometer passes through the test composition in the cuvette. The sample cuvettes are shaken well just prior to taking a light transmittance reading.

| light transmittance value | Molecule | solubility in 50 centistoke dimethicone |
| --- | --- | --- |
| about 100% | CCCCCCCCCCCCCCCCCC(=O)OCCCC [butyl stearate] |  |
| about 100% | CCCCCCCCCCCCCC(C)C [isohexadecane] | soluble |
| about 101% | CCCCCCCCCCCCCC(=O)OC(C)C [isopropyl myristate] |  |
| about 101% | CCCCCCCCCCCCCCCC(=O)OC(C)C [isopropyl palmitate] |  |
|  | CCCCCCCCCCC(CO)CCCCCCCC (centres unmarked) [octyldodecanol] | soluble in the 50 centistoke dimethicone at some (lower) concentrations |
|  | PPG-14 butyl ether | insoluble |
|  | mineral oil | soluble in 50 centistoke dimethicone at some (lower) concentrations |
